Laboratory results reported in patent US20240239775A1, “FXR REGULATOR, PREPARATION METHOD THEREFOR, PHARMACEUTICAL COMPOSITION THEREOF AND USE THEREOF” (QINGDAO RUIJI MEDICAL TECHNOLOGY CO., LTD., priority 2021, published 2024).

Columns and labels:
FXR = biological target: T1, FXR (Homo sapiens, UniProt Q96RI1); test: FXR antagonist screening by TR-FRET (LanthaScreen TR-FRET FXR co-activation assay kit); format: biochemical; conditions: TR-FRET with CDCA, geometric means of at least two independent runs
T1 construct: 5 μL of 20 nM FXR-LBD Complete Coregulator buffer G; purchased ThermoFisher PV4833
T1 sequence (Q96RI1 262-486 limits assumed): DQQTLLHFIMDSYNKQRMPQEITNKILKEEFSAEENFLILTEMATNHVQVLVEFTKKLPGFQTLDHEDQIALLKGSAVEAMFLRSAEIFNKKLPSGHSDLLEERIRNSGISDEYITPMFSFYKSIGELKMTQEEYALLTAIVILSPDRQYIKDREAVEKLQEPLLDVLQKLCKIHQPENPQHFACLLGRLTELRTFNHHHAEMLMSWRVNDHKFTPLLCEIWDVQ
Method in brief: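 FXR-LBD (20 nM working solution) mixed with compound, CDCA (200 μM working solution) as agonist, Fluorescein-SRC2-2 and Tb-anti-GST antibody in Coregulator buffer G; 10 h at room temperature. Coactivator recruitment read by TR-FRET, triplicate wells.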

[1] = Table 1.1, FXR antagonistic activity
[2] = Table 1.2, FXR antagonistic activity

Row | SMILES | IC50 (FXR; [1]) [µM] | melting point | IC50 (FXR; [2]) [µM]
1 | Cc1c(C(=O)O)oc2ccc(S(=O)(=O)N(CCc3ccccc3)Cc3ccccc3N3CCN(C(=O)CC(C)(C)C)CC3)cc12 [Example F27-S103] | 10 to 50 | 190 to 191 °C | –
2 | Cc1c(C(=O)O)oc2ccc(S(=O)(=O)N(CCc3ccccc3)Cc3ccc(F)cc3F)cc12 [Example F27-S51, 3-methyl-5-(N-(2,4-difluorobenzyl)-N-phenethylsulfamoyl)benzofuran-2-carboxylic acid] | 10 to 50 | 155 to 156 °C | –
3 | Cc1ccc(F)cc1CN(CCc1ccccc1)S(=O)(=O)c1ccc2oc(C(=O)O)c(C)c2c1 [Example F27-S61, 3-methyl-5-(N-(2-methyl-5-fluorobenzyl)-N-phenethylsulfamoyl)benzofuran-2-carboxylic acid] | 10 to 50 | > 380 °C (dec.) | –
4 | Cc1c(C(=O)O)oc2ccc(S(=O)(=O)N(CCc3ccccc3)Cc3cccc(C(F)(F)F)c3)cc12 [Example F27-S24, 3-methyl-5-(N-(3-trifluoromethylbenzyl)-N-phenethylsulfamoyl)benzofuran-2-carboxylic acid] | 50 to 100 | 188 to 189 °C | –
5 | Cc1c(C(=O)O)oc2ccc(S(=O)(=O)N(CCc3ccccc3)c3ccc(CN4CCN(C(=O)OC(C)(C)C)CC4)cc3)cc12 [Example F27-S76, 3-methyl-5-(N-(4-((4-(tert-butoxycarbonyl)piperazin-1-yl)methyl)phenyl)-N-phenethylsulfonamide)benzofuran-2-carboxylic acid] | 10 to 50 | 234 to 235 °C | –
6 | Cc1c(C(=O)O)oc2ccc(S(=O)(=O)N(CCc3ccccc3)c3ccc(N4CCN(C(=O)CC(C)(C)C)CC4)cc3)cc12 [Example F27-S66, 3-methyl-5-(N-(4-(4-(3,3-dimethylbutyryl)piperazin-1-yl)phenyl)-N-phenethylsulfamoyl)benzofuran-2-carboxylic acid] | 10 to 50 | > 380 °C (dec.) | –
7 | Cc1c(C(=O)O)oc2ccc(S(=O)(=O)N(CCc3ccccc3)c3ccc(N4CCN(C(=O)OC(C)(C)C)CC4)c(C(F)(F)F)c3)cc12 [Example F27-S74, 3-methyl-5-(N-(4-(4-(tert-butoxycarbonyl)piperazin-1-yl)-3-(trifluoromethyl)phenyl)-N-phenethylsulfamoyl)benzofuran-2-carboxylic acid] | 0.1 to 10 | 215 to 216 °C | –
8 | Cc1c(C(=O)O)oc2ccc(S(=O)(=O)N(CCc3ccccc3)Cc3ccc(C(=O)c4ccccc4)cc3)cc12 [Example F27-S85, 3-methyl-5-(N-(4-benzoylbenzyl)-N-phenethylsulfamoyl)benzofuran-2-carboxylic acid] | 10 to 50 | 192 to 193 °C | –
9 | CCOC(=O)c1oc2ccc(S(=O)(=O)N(CCc3ccccc3)Cc3ccc(-c4ccccc4C#N)cc3)cc2c1C [Example M4-83, ethyl 3-methyl-5-(N-((2′-cyano-[1,1′-biphenyl]-4-yl)methyl)-N-phenethylsulfamoyl)benzofuran-2-carboxylate] | 50 to 100 | – | –
10 | CCOC(=O)c1oc2ccc(S(=O)(=O)N(CCc3ccccc3)c3ccccc3N3CCN(C(=O)c4cc[nH]n4)CC3)cc2c1C [Example M10-130, Ethyl 5-(N-(2-(4-(1H-pyrazole-3-carbonyl)piperazin-1-yl)phenyl)-N-phenethylsulfamoyl)-3-methylbenzofuran-2-carboxylate] | – | – | 50 to 100
11 | CCOC(=O)c1oc2ccc(S(=O)(=O)N(CCc3ccccc3)Cc3ccc(C(F)(F)F)cc3C(F)(F)F)cc2c1C [Example M4-58, ethyl 3-methyl-5-(N-(2,4-bis(trifluoromethyl)benzyl)-N-phenethylsulfamoyl)benzofuran-2-carboxylate] | 50 to 100 | – | –
12 | Cc1c(C(=O)O)oc2ccc(S(=O)(=O)N(CCc3ccccc3)c3ccccc3N3CCN(C(=O)C4CCCS4)CC3)cc12 (stereo not drawn) [Example F27-S143, 5-(N-(2-(4-(tetrahydrothiophene-2-formyl)piperazin-1-yl)phenyl)-N-phenethylsulfamoyl)3-methyl benzofuran-2-carboxylic acid] | – | – | 0.1 to 10
13 | CCOC(=O)c1cc2ccc(S(=O)(=O)N(CCc3ccccc3)c3ccccc3N3CCN(C(=O)c4sccc4Br)CC3)cc2o1 [Example M10-164, Ethyl 6-(N-(2-(4-(3-bromothiophene-2-formyl)piperazin-1-yl)phenyl)-N-phenethylsulfamoyl)benzofuran-2-carboxylate] | – | – | 50 to 100
14 | O=C(O)c1cc2ccc(S(=O)(=O)N(CCc3ccccc3)c3ccccc3N3CCN(C(=O)c4sccc4Br)CC3)cc2s1 [Example F27-S160, 6-(N-(2-(4-(3-bromothiophene-2-carbonyl)piperazin-1-yl)phenyl)-N-phenethylsulfamoyl)benzo[b]thiophene-2-carboxylic acid] | – | – | 0.1 to 10
15 | CCOC(=O)c1oc2ccc(S(=O)(=O)N(CCc3ccccc3)Cc3ccc(C(F)(F)F)cc3F)cc2c1C [Example M4-55, ethyl 3-methyl-5-(N-(2-fluoro-4-(trifluoromethyl)benzyl)-N-phenethylsulfamoyl)benzofuran-2-carboxylate] | 50 to 100 | – | –
16 | CCOC(=O)c1oc2ccc(S(=O)(=O)N(CCc3ccccc3)Cc3ccccc3N3CCN(S(C)(=O)=O)CC3)cc2c1C [Example M10-102, ethyl 3-methyl-5-(N-(2-(4-methanesulfonylpiperazin-1-yl)benzyl)-N-phenethylsulfamoyl)benzofuran-2-carboxylate] | 50 to 100 | – | –
17 | CCOC(=O)c1oc2ccc(S(=O)(=O)N(CCc3ccccc3)c3ccccc3N3C4CCC3CN(C(=O)c3sccc3Br)C4)cc2c1C [Example M10-155, Ethyl 5-(N-(2-(3-(3-bromothiophene-2-formyl)-3,8-diazepine[3.2.1]cyclooctan-8-yl)phenyl)-N-phenethylsulfamoyl)3-methylbenzofuran-2-carboxylate] | – | – | 50 to 100
18 | CCOC(=O)c1sc2ccc(S(=O)(=O)N(CCc3ccc(C(=O)OC)cc3)c3ccccc3N3CCN(C(=O)c4sccc4Br)CC3)cc2c1C [Example M10-167, ethyl 5-(N-(2-(4-(3-bromothiophene-2-carbonyl)piperazin-1-yl)phenyl)-N-(4-(methoxycarbonyl)phenethyl)sulfamoyl)-3-methylbenzothiophene-2-carboxylate] | – | – | 50 to 100
19 | CCOC(=O)c1oc2ccc(S(=O)(=O)N(CCc3ccccc3)Cc3ccccc3N3CCNCC3)cc2c1C [Example M9-2, ethyl 3-methyl-5-(N-phenethyl-N-(2-(piperazin-1-yl)benzyl)sulfamoyl)benzofuran-2-carboxylate] | 50 to 100 | – | –
20 | CCOC(=O)c1oc2ccc(S(=O)(=O)N(CCc3ccccc3)c3ccccc3N3CCN(C(=O)C4CCCC4)CC3)cc2c1C [Example M10-122, Ethyl 5-(N-(2-(4-(cyclopentanecarbonyl)piperazin-1-yl)phenyl)-N-phenethylsulfamoyl)-3-methylbenzofuran-2-carboxylate] | – | – | 50 to 100
21 | CCOC(=O)c1oc2ccc(S(=O)(=O)N(CCc3ccccc3)Cc3ccc(C(=O)c4ccccc4)cc3)cc2c1C [Example M4-85, ethyl 3-methyl-5-(N-(4-benzoylbenzyl)-N-phenethylsulfamoyl)benzofuran-2-carboxylate] | 50 to 100 | – | –
22 | CCOC(=O)c1oc2ccc(S(=O)(=O)N(CCc3ccccc3)c3ccc(Oc4ccccc4)cc3)cc2c1C [Example M8-12, ethyl 3-methyl-5-(N-(4-phenoxyphenyl)-N-phenethylsulfamoyl)benzofuran-2-carboxylate] | 50 to 100 | – | –
23 | Cc1c(C(=O)O)oc2ccc(S(=O)(=O)N(CCc3ccccc3)Cc3ccc(C(=O)OC(C)(C)C)cc3)cc12 [Example F27-S40, 3-methyl-5-(N-(4-(tert-butoxycarbonyl)benzyl)-N-phenethylsulfamoyl)benzofuran-2-carboxylic acid] | 10 to 50 | – | –
24 | CCOC(=O)c1oc2ccc(S(=O)(=O)N(CCc3ccccc3)Cc3c(F)cccc3F)cc2c1C [Example M4-46, ethyl 3-methyl-5-(N-(2,6-difluorobenzyl)-N-phenethylsulfamoyl)benzofuran-2-carboxylate] | 50 to 100 | – | –
25 | Cc1c(C(=O)O)sc2ccc(S(=O)(=O)N(CCc3ccc(C(F)(F)F)cc3)c3ccccc3N3CCN(C(=O)c4sccc4Br)CC3)cc12 [Example F27-S170, 5-(N-(2-(4-(3-bromothiophene-2-carbonyl)piperazin-1-yl)phenyl)-N-(4-(trifluoromethyl)phenethyl)sulfamoyl)-3-methylbenzothiophene-2-carboxylic acid] | – | – | 0.1 to 10
26 | CCOC(=O)c1oc2ccc(S(=O)(=O)N(CCc3ccccc3)Cc3cccc(N4CCN(C(=O)OC(C)(C)C)CC4)c3)cc2c1C [Example M8-88, ethyl 3-methyl-5-(N-(3-(4-(tert-butoxycarbonyl)piperazin-1-yl)benzyl)-N-phenethylsulfamoyl)benzofuran-2-carboxylate] | 50 to 100 | – | –
27 | Cc1c(C(=O)O)oc2ccc(S(=O)(=O)N(CCc3ccccc3)c3ccccc3N3CCN(C(=O)c4cccnc4)CC3)cc12 [Example F27-S116, 3-methyl-5-(N-(2-(4-nicotinoylpiperazin-1-yl)phenyl)-N-phenethylsulfamoyl)benzofuran-2-carboxylic acid] | – | – | 0.1 to 10
28 | CCOC(=O)c1oc2ccc(S(=O)(=O)N(CCc3ccccc3)Cc3ccc(Br)cc3F)cc2c1C [Example M4-53, ethyl 3-methyl-5-(N-(2-fluoro-4-bromobenzyl)-N-phenethylsulfamoyl)benzofuran-2-carboxylate] | 50 to 100 | – | –
